Data set [1] can be described thus: Bleach Stability Test (triangle test after storage with perborate and TAED). The settings on record: number of 20 assessors correctly choosing odd one out; 0.2% material in powder with perborate and TAED, 45° C. one week; up to 9 = bleach-stable, 10 or more = unstable. In kind it is physicochemical. How it is done:
(i) dosing a perfume material into the standard unperfumed washing powder and incubating the dosed powder at 20° C. in a sealed container for seven days;
(ii) dividing the dosed powder into two portions and adding to each portion sodium perborate tetrahydrate together with either TAED granules or sodium sulphate (to act as an inert filler in place of TAED) to provide test and control formulations having the following constitution: […]
(iii) incubating both test and control powders in sealed containers at 45° C. for a further seven days; and
(iv) assessing samples of the test and control powders according to a standard triangle test as described in "Manual on Sensory Testing Methods" published by the American Society for Testing and Materials (1969), using a panel of 20 assessors, who are instructed to judge by smell which of the three powder samples is the odd one out, the perfume material being designated a bleach-stable deodorant perfume component when the odd one out is correctly identified by no more than 9 of the 20 assessors.
The stability of perfume materials to the presence of a bleaching composition is assessed according to a standard test which involves the exposure of these individual perfume materials to a mixture of sodium perborate tetrahydrate and TAED in a detergent fabric washing powder under standard conditions of storage.
In order to perform this test, a detergent powder base is prepared according to a standard blowing technique to form a granulated product. The formulation of the detergent powder base is as follows: […]
A selected perfume material is then incorporated by mixing with a portion of the blown base powder to a final concentration of 0.2% by weight of the finished product, and stored at 20° C. in a sealed container for one week with occasional mixing to ensure an even concentration of the perfume material throughout the powder. The sample is the split into two portions and further ingredients mixed in to provide the following test and control formulations:
100 g samples of each control and test batch of powder containing a selected perfume material are then sealed in containers and stored at 45° C. for one week. Each sample is then assessed in a forced choice triangle test according to the following procedure:
Three samples of powder, either one from the test batch and two from the control batch, or two from the test batch and one from the control batch are then assessed by a panel of 20 assessors who are asked to select by sniffing which of the three samples is the "odd one out".
The fragrance of samples containing bleach-stable perfume materials should be unchanged following incubation in the presence of the perborate and TAED, and accordingly there is a 1 in 3 chance of an assessor selecting correctly the control or test sample as the "odd one out".
The Triangle Test procedure is described and discussed in "Manual on Sensory Testing Methods" published by the American Society for Testing and Materials (1969).
The results of each Triangle Test are calculated as follows: […]
If 10 or more of the 20 assessors choose correctly the "odd one out" of the three samples, then the perfume material under test is judged to be unstable in the presence of bleach. If, however, up to 9 of the 20 accessors choose correctly the "odd one out" of 3 samples, then the perfume material under test is judged to be stable in the presence of bleach.

A short description of data set [2]: Morpholine Test (depression of partial vapour pressure of morpholine, Raoult Variance Ratio). Conditions: morpholine 0.25 g + material 1 g, 37° C., headspace GC.
Data set [3] has as its target T1, lipoxidase (EC1.13.1.13) (Glycine max, UniProt P08170).
T1 sequence (P08170 1-839): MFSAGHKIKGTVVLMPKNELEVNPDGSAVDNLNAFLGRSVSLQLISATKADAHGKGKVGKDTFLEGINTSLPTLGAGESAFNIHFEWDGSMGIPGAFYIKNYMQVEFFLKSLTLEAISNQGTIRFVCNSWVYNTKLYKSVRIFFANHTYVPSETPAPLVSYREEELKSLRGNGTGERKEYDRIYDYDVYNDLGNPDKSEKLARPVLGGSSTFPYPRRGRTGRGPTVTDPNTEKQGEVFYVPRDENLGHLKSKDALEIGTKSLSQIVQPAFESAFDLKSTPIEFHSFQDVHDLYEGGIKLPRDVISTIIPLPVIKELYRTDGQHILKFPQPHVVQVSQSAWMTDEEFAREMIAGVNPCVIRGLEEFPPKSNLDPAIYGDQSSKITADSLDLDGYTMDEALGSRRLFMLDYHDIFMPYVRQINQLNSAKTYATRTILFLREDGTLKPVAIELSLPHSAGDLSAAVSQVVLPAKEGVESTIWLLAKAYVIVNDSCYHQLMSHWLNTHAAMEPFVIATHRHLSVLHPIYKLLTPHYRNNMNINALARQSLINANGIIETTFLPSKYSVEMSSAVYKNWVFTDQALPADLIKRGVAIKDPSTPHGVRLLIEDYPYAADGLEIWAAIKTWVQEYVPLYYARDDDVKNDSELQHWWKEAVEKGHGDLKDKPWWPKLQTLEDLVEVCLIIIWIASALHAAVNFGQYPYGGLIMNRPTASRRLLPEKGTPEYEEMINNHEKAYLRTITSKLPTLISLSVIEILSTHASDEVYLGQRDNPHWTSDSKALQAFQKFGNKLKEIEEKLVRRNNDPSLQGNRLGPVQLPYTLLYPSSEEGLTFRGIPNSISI
The experiment in a line: Lipoxidase Test (inhibition of oxidation of linoleic acid by lipoxidase). It is filed as biochemical. Conditions: test substrate made with 0.5% by weight solution of material in ethanol; for inhibition at 0.5 % strength: borate buffer pH 9.0, 234 nm, read-out: LIC value (Lipoxidase-Inhibiting Capacity); for LIC value (Lipoxidase-Inhibiting Capacity): % inhibition, borate buffer pH 9.0, 234 nm.

From US4663068A, “Bleach-stable deodorant perfumes in detergent powders” (priority 1983, dated 1987) come the findings set out here.

Consider `CC1COCc2cc3c(cc21)C(C)(C)C(C)C3(C)C` (stereo not drawn) [1,3,4,6,7,8-Hexahydro-4,6,6,7,8,8-hexamethyl cyclopenta-α-2-benzopyran], for which, in data set [1], the BST panel score was determined as 5.
As for `CCCCCCCC1CCCC1=O` (stereo not drawn) [2-n-Heptylcyclo-pentanone], the “RVR value (Raoult Variance Ratio)” value in data set [2] came out at 1.05. In data set [1], this molecule had a BST panel score of 7.
Take `CC1(C)CCCC2(C)C1CCC1(C)OCCC12` (stereo not drawn) [3a-Methyl-dodecahydro-6,6,9a-trimethylnaphtho-2(2,1-b)furan]: the “RVR value (Raoult Variance Ratio)” value in data set [2] came out at 1.30. Further, the BST panel score in data set [1] was 5.
Turning to `O=C(OCc1ccccc1)c1ccccc1O` [Benzyl salicylate], the “RVR value (Raoult Variance Ratio)” value in data set [2] is listed as 1.58. The BST panel score in data set [1] came out at 17.
Taken in the same sequence, the figures for `Cc1ccc(C(C)C)cc1O` [Carvacrol] were 1.43 and 6.
Regarding `OC/C=C/c1ccccc1` [Cinnamic alcohol], the “RVR value (Raoult Variance Ratio)” value in data set [2] is given as 1.28. Besides, in data set [1], the BST panel score stood at 9.
Take `O=c1ccc2ccccc2o1` [Coumarin]: the “RVR value (Raoult Variance Ratio)” value in data set [2] is listed as 1.22. The BST panel score in data set [1] was determined as 10.
Taken in the same sequence, the figures for `CCOC(=O)c1ccccc1C(=O)OCC` [Diethyl phthalate] were 1.20 and 4.
Consider `CCOC(=O)c1ccccc1O` [Ethyl salicylate], for which the “RVR value (Raoult Variance Ratio)” value in data set [2] was found to be 1.19. In data set [1], the BST panel score came to 7.
As to `CCOc1cc(C=O)ccc1O` [Ethyl vanillin], the “RVR value (Raoult Variance Ratio)” value in data set [2] turned out to be 1.43. In data set [1], this molecule gave a BST panel score of 12.
For the molecule `CCCCCCOC(=O)c1ccccc1O` [Hexyl salicylate], in data set [1], the BST panel score came out at 5. Also, in data set [3], the inhibition at 0.5 % strength turned out to be 100%.
Regarding `COC(=O)c1ccccc1N` [Methyl anthranilate], in data set [2], the “RVR value (Raoult Variance Ratio)” value is 1.20. The BST panel score in data set [1] is 6. In data set [3], the inhibition at 0.5 % strength was 69%.
On to `CCCCCCC(CCOC(C)=O)OC(C)=O` (stereo not drawn) [Nonanediol-1,3-diacetate], for which, in data set [2], the “RVR value (Raoult Variance Ratio)” value amounted to 1.17. This molecule also yielded a BST panel score in data set [1] of 8.
Consider `CCCCCC1CCC(=O)O1` (stereo not drawn) [Nonanolide-1,4], for which the “RVR value (Raoult Variance Ratio)” value in data set [2] was 0.87. Moreover, the BST panel score in data set [1] is 5.
Turning to `OCCc1ccccc1` [Phenylethyl alcohol], in data set [2], the “RVR value (Raoult Variance Ratio)” value is given as 1.24. For the same molecule, in data set [1], the BST panel score was determined as 10.
`O=C(Cc1ccccc1)OCCc1ccccc1` [Phenylethyl phenyl acetate]: the “RVR value (Raoult Variance Ratio)” value in data set [2] is on record as 1.22. Moreover, the BST panel score in data set [1] turned out to be 7.
In the case of `CC(C)CCOC(=O)c1ccccc1O` [iso-Amyl salicylate], the “RVR value (Raoult Variance Ratio)” value in data set [2] is reported as 1.24. The BST panel score in data set [1] was determined as 9.
With `CC(C)Cc1ccc2ncccc2c1` [iso-Butyl quinoline], in data set [2], the “RVR value (Raoult Variance Ratio)” value came to 1.10. Further, the BST panel score in data set [1] worked out at 5.
On to `C/C=C\c1ccc(O)c(OC)c1` [iso-Eugenol], for which the “RVR value (Raoult Variance Ratio)” value in data set [2] came out at 1.48. In addition, the BST panel score in data set [1] is listed as 4.
As to `CC(=O)OC1CCCCC1C(C)(C)C` (stereo not drawn) [o-t-Butylcyclohexyl acetate], in data set [2], the “RVR value (Raoult Variance Ratio)” value was 1.08. For the same molecule, the BST panel score in data set [1] is on record as 8.
The corresponding values for `CCC(C)(C)C1CCC(=O)CC1` [p-t-Amyl cyclohexanone] are 1.10 and 8.
`CC(=O)OC1CCC(C(C)(C)C)CC1` (stereo not drawn) [p-t-Butyl cyclohexyl acetate]: the “RVR value (Raoult Variance Ratio)” value in data set [2] is given as 0.98. This molecule had a BST panel score in data set [1] of 10.
Molecule `CC(C=O)Cc1ccc(C(C)(C)C)cc1` (stereo not drawn) [p-t-Butyl-α-methyl hydrocinnamic aldehyde] came in with a BST panel score in data set [1] of 13.
On to `CC(=O)C(C)=CC1C(C)=CCCC1(C)C` (stereo not drawn) [α-iso-Methyl ionone], for which the BST panel score in data set [1] was determined as 7.
As to `CC(=O)c1ccc2ccccc2c1` [β-Methyl naphthyl ketone], the “RVR value (Raoult Variance Ratio)” value in data set [2] is given as 0.96. This molecule also gave a BST panel score in data set [1] of 3.
For the molecule Dimyrcetol, the “RVR value (Raoult Variance Ratio)” value in data set [2] is given as 1.22. The same molecule had a BST panel score in data set [1] of 9. Besides, the “LIC value (Lipoxidase-Inhibiting Capacity)” value in data set [3] turned out to be 16%.
Take Hydroxymethyl isopropyl cyclopentane: the “RVR value (Raoult Variance Ratio)” value in data set [2] was 1.23. For the same molecule, the BST panel score in data set [1] stood at 8. Moreover, in data set [3], the “LIC value (Lipoxidase-Inhibiting Capacity)” value is given as 60%.
On to Tetrahydromuguol, for which the “RVR value (Raoult Variance Ratio)” value in data set [2] was determined as 1.23. The BST panel score in data set [1] is 8. Also, the “LIC value (Lipoxidase-Inhibiting Capacity)” value in data set [3] is recorded as 24%.
As for i-Nonyl acetate, the “RVR value (Raoult Variance Ratio)” value in data set [2] is listed as 0.83. In data set [1], the BST panel score was determined as 4. The “LIC value (Lipoxidase-Inhibiting Capacity)” value in data set [3] is 50%.
As to i-Nonyl formate, in data set [2], the “RVR value (Raoult Variance Ratio)” value is on record as 1.49. This molecule displayed a BST panel score in data set [1] of 8. The “LIC value (Lipoxidase-Inhibiting Capacity)” value in data set [3] is 19%.
